The values below come from patent US10253323B2, “Chloroplast transit peptides” (priority 2015, dated 2019).

Entries after “also recorded” stand apart in the source; their conditions may differ.

In test [1] the test system is infiltrated tobacco cells. Description: Western blot of infiltrated tobacco plants. The test is classed as cell-based, Nicotiana tabacum. As to conditions: infiltrated tobacco leaf tissue. As to the method:
Samples of the infiltrated tobacco plants were assayed via Western blotting. Leaf punches were collected and subjected to bead-milling. About 100-200 mg of leaf material was mixed with 2 BBs (Daisy; Rogers, Ark.) and […] of PBST for 3 minutes in a Kleco™ bead mill. The samples were then spun down in a centrifuge at 14,000× g at 4° C. The supernatant was removed and either analyzed directly via Western blot or immunoprecipitated. The immunoprecipitations were performed using the Pierce Direct IP Kit™ (Thermo Scientific; Rockford, Ill.) following the manufacturer's protocol. Approximately, 50 μg of anti-YFP or anti-GFP was bound to the resin. The samples were incubated with the resin overnight at 4° C. Next, the samples were washed and eluted the following morning and prepped for analysis by combining equal volumes of 2×8M Urea sample buffer and then boiling the samples for 5 minutes. The boiled samples were run on a 4-12% SDS-Bis Tris gel in MOPS buffer for 40 minutes. The gel was then blotted using the Invitrogen iBlot™ (Life Technologies; Carlsbad, Calif.) following the manufacturer's protocol. The blotted membrane was blocked for 10 minutes using 5% non-fat dry milk in PBS-Tween® solution. The membrane was probed with the primary antibody (monoclonal anti-GFP or anti-YFP in rabbit) used at a 1:1000 dilution in the 5% non-fat dry milk in PBS-Tween® solution for 1 hour. Next, the membrane was rinsed three times for five minutes with PBS-Tween® to remove all unbound primary antibody. The membrane was probed with a secondary monoclonal anti-rabbit in goat antibody (Life Technologies) used at a 1:1000 dilution, for 60 minutes. The membrane was washed as previously described and developed by adding Themo BCIP/NBT™ substrate. The colormetric substrate was allowed to develop for 5-10 minutes and then the blots were rinsed with water before being dried.
(In western blotting, separated proteins are transferred to a membrane and probed.)

The subject of test [2] is dgt-28 transformed T1 Arabidopsis. Description: Glyphosate tolerance of dgt-28 transformed T1 Arabidopsis. In kind it is in vivo, Arabidopsis thaliana. As to conditions: dgt-28 linked with the chloroplast transit peptide, T1 Arabidopsis. The procedure:
The Arabidopsis T1 transformants (from transformation with pDAB114286 or pDAB114287) were first selected from the background of untransformed seed using a glufosinate selection scheme. Three flats or 50,000 seed were analyzed for each T1 construct. The selected T1 plants were molecularly characterized (as described above) and events with a range of copy number were sprayed with various rates of commercial glyphosate.
Transgenic T1 Arabidopsis plants containing the dgt-28 transgene were sprayed with differing rates of glyphosate. Elevated rates were applied in this study to determine the relative levels of resistance (420, 840, 1,680 or 3,360 g ae/ha). The typical 1× field usage rate of glyphosate is 1120 g ae/ha. The response of these plants is presented in terms of % visual injury 2 weeks after treatment (WAT). The T1 Arabidopsis plants that were used in this study were of variable copy number for the dgt-28 transgene. The low copy dgt-28 T1 Arabidopsis plants were self-pollinated and used to produce T2 plants.
An arithmetic mean and standard deviation is presented for each construct used for Arabidopsis transformation. The range in individual response is also indicated in the last column for each rate and transformation. Wildtype, non-transformed Arabidopsis thaliana c.v. Columbia served as a glyphosate sensitive control.

The test system of test [3] is chloroplasts of the tobacco leaf tissues. The experiment in a line: Tobacco transient assay, confocal microscopy of TraP-YFP/GFP. The note with it: TraP-YFP or TraP-GFP fusion, Agrobacterium-infiltrated tobacco leaf tissue. In kind it is cell-based, Nicotiana tabacum. An excerpt: The above described chimeric chloroplast transit peptide sequences were initially tested via a transient in planta assay. Polynucleotide sequences which encode the TraP10 (SEQ ID NO:9), TraP11 (SEQ ID NO:10), TraP17 (SEQ ID NO:11), TraP18 (SEQ ID NO:12), TraP19 (SEQ ID NO:13), TraP26 (SEQ ID NO:14), TraP27 (SEQ ID NO:15), and TraP28 (SEQ ID NO:16), chimeric chloroplast transit peptide sequences were synthesized. A linker sequence (SEQ ID NO:17) was incorporated between the TraP sequence and the yfp coding sequence of TraP10 and TraP11. The resulting constructs contained two plant transcription units (PTU). The first PTU was comprised of the Arabidopsis thaliana Ubiquitin 10 promoter (AtUbi10 promoter; Callis, et al., (1990) J. Biol. Chem., 265: 12486-12493), TraP-yellow fluorescent protein fusion gene (TraP-YFP; US Patent App. 2007/0298412) or the TraP-green fluorescent protein fusion gene (TraP-GFP; Sheen et al., (1995) Plant J., 8(5): 777-84), and Agrobacterium tumefaciens ORF 23 3′ untranslated region (AtuORF23 3′UTR; U.S. Pat. No. 5,428,147). The second PTU was comprised of the Cassava Vein Mosaic Virus promoter (CsVMV promoter; Verdaguer et al., (1996) Plant Molecular Biology, 31: 1129-1139), phosphinothricin acetyl transferase (PAT; Wohlleben et al., (1988) Gene, 70: 25-37) or DSM-II (International Patent App. 2008070845), and Agrobacterium tumefaciens ORF 1 3′ untranslated region (AtuORF1 3′UTR; Huang et al., (1990) J. Bacteriol., 172: 1814-1822). Construct pDAB101979 contains the TraP10 chimeric chloroplast transit peptide (FIG. 3). Construct pDAB101980 contains the TraP11 chimeric chloroplast transit peptide (FIG. 4). Construct pDAB107634 contains the TraP17 chimeric chloroplast transit peptide (FIG. 5). Construct pDAB107635 contains the TraP18 chimeric chloroplast transit peptide (FIG. 6). Construct pDAB107636 contains the TraP19 chimeric chloroplast transit peptide (FIG. 7). Construct pDAB109847 contains the TraP26 chimeric chloroplast transit peptide (FIG. 8). Construct pDAB109848 contains the TraP27 chimeric chloroplast transit peptide (FIG. 9). Construct pDAB109849 contains the TraP28 chimeric chloroplast transit peptide (FIG. 10). […] The constructs were confirmed via restriction enzyme digestion and sequencing. Finally, the constructs were transformed into Agrobacterium tumefaciens and stored as glycerol stocks.
From an Agrobacterium glycerol stock, a loop full of frozen culture was inoculated into 2 ml of Yeast-extract Peptone Dextrose (100 μg/ml spectinomycin) in a 14 ml sterile tube. The inoculated media was incubated at 28° C. overnight with shaking at 200 rpm. The following day about 100 μl of the culture was used to inoculate 25 ml of YPD (100 μg/ml spectinomycin) in a 125 ml sterile tri-baffled flask, and incubated overnight at 28° C. overnight with shaking at 200 rpm. The following day the cultures were diluted to an OD600 of 0.5 in sterile ddH2O (pH 8.0). The diluted Agrobacterium strain was mixed with a second Agrobacterium strain containing the P19 helper protein at a ratio of 1:1. The culture were used for tobacco leaf infiltration via the Voinnet method. Voinnet O, Rivas S, Mestre P, and Baulcombe D, (2003) An enhanced transient expression system in plants based on suppression of gene silencing by the p19 protein of tomato bushy stunt virus. The Plant Journal, 33: 949-956. Infiltrated tobacco plants were placed in a Conviron™ set at 16 hr of light at 24° C. for at least three days until being assayed.
Agrobacterium-infiltrated tobacco leaves were severed from the plant, and placed into a petri-dish with water to prevent dehydration. The infiltrated tobacco leaves were observed under blue light excitation with long-pass filter glasses held in place using a Dark Reader Hand Lamp™ (Clare Chemical Research Co.; Dolores, Colo.) to identify undamaged areas of the leaf that were successfully expressing the YFP or GFP reporter proteins. […]

The test system of test [4] is chloroplasts of the maize protoplasts. The experiment in a line: Maize protoplast transient assay, microscopy of TraP-GFP. The test is classed as cell-based, Zea mays c.v. B104. As to conditions: TraP-GFP fusion, transfected maize protoplasts, microscopy after 12 hours. As to the method: Seed of Zea mays c.v. B104 were surface sterilized by shaking vigorously in 50% Clorox™ (3% sodium hypochlorite), containing 2-3 drops of Tween® 20, for about 20 minutes. The seeds were rinsed thoroughly with sterile distilled water. The sterile seed were plated onto ½ MS medium in Phytatrays or similar type boxes, and allowed to grow in the dark (28° C.) for 12 to 20 days. A maize protoplast transient assay was used to obtain and transfect maize protoplasts from leaves of Zea mays c.v. B104. This maize protoplast assay is a modification of the system described by Yoo, S.-D., Cho, Y.-H., and Sheen, J., (2007), Arabidopsis Mesophyll Protoplasts: A Versitile Cell System for Transient Gene Expression Analysis, Nature Protocols, 2: 1565-1572. The solutions were prepared as described by Yoo et. al., (2007), with the exception that the mannitol concentration used for the following experiments was change to 0.6 M.
Transfection of 100 to 500 μl of protoplasts (1-5×10^5 cells) was completed by adding the protoplasts to a 2 ml microfuge tube containing about 40 μg of plasmid DNA, at room temperature. The volume of DNA was preferably kept to about 10% of the protoplast volume. The protoplasts and DNA were occasionally mixed during a 5 minute incubation period. An equal volume of PEG solution was slowly added to the protoplasts and DNA, 2 drops at a time with mixing in between the addition of the drops of PEG solution. The tubes were allowed to incubate for about 10 minutes with occasional gentle mixing. Next, 1 ml of W5+ solution was added and mixed by inverting the tube several times. The tube(s) were centrifuged for 5 minutes at 75× g at a temperature of 4° C. Finally, the supernatant was removed and the pellet was resuspended in 1 ml of WI solution and the protoplasts were placed into a small petri plate (35×10 mm) or into 6-well multiwell plates and incubated overnight in the dark at room temperature. Fluorescence of GFP was viewed by microscopy after 12 hours of incubation. The microscopy conditions similar to those previously described were used for the imaging.

For the molecule “TraP26: synthetic chloroplast transit peptide, SEQ ID NO:6; tested fused to GFP (pDAB109847) (MAQVSMIPNAIQAPCSISLSKSQAGKSVRKVSLKPNQHAAWGLRRSGMRVGNPEVVVSAS; TraP26)”, the “TraP processed and cleaved from the YFP or GFP protein” value (shortened to “TraP processed and cleaved”) in test [1] is “processed and cleaved from the YFP or GFP protein”. The protection to glyphosate entry in test [2] was “provide protection to glyphosate”. For the same molecule, the “translocation of YFP or GFP fluorescent protein into chloroplasts” value in test [3] is on record as “accumulated within the chloroplasts; also recorded: successfully targeted GFP to tobacco chloroplasts”; in test [3] (listed as TraP26-GFP) it was “translocated into the chloroplasts”.

As for “TraP28: synthetic chloroplast transit peptide, SEQ ID NO:8; tested fused to GFP (pDAB109849) (MAVQSNMICAGVANPFVSPNLSKTRASKSVYSVLGTRLNSSARGKKSAMPLIGNRVPVSA; TraP28)”, the “TraP processed and cleaved” value in test [1] was “processed and cleaved from the YFP or GFP protein”. Besides, the “translocation of YFP or GFP fluorescent protein into chloroplasts” value in test [3] is reported as “accumulated within the chloroplasts; also recorded: successfully targeted GFP to tobacco chloroplasts”; in test [3] (listed as TraP28-GFP) it was “translocated into the chloroplasts”.

B1: TraP17: chimeric chloroplast transit peptide, SEQ ID NO:3; N-terminus Calystegia, C-terminus Chlamydamonas reinhardtii; tested fused to GFP (pDAB107634) (protein)
chain: MAQVNNMMQGLRLSPSNLSKPQTPLPSHSLLLGSNSLKNSVSASSVAPAPACSAPAGAGRRAVVVR
modifications: TraP17
In the case of B1, the “translocation of YFP or GFP fluorescent protein into chloroplasts” value is “did not translocate YFP fluorescent proteins into the chloroplasts of tobacco” in test [3] and “did not translocate into the chloroplasts” in test [3] (listed as TraP17-GFP). Also, the “translocation of GFP fluorescent protein into chloroplasts” value is “did translocate YFP fluorescent proteins into the chroroplasts of maize; also recorded: accumulated within the chloroplasts; also recorded: successfully targeted GFP to maize chloroplasts” in test [4] and “translocated into the chloroplasts” in test [4] (listed as TraP17-GFP).

B2: TraP10: chimeric chloroplast transit peptide, SEQ ID NO:1; N-terminus Brassica napus, C-terminus Glycine max EPSPS; tested fused to YFP (pDAB101979) (protein)
chain: MAQSSRICHGVQNPCVIISNLSKSNQNKSPFSVSLRPRLWGASKSRIPMHKNGSFMGNFNVGKGNSGVFKVS
modifications: TraP10
For the molecule B2, in test [1], the “TraP processed and cleaved” value is “processed and cleaved from the YFP or GFP protein”. The “translocation of YFP or GFP fluorescent protein into chloroplasts” value is listed as “accumulated within the chloroplasts; also recorded: successfully targeted YFP to tobacco chloroplasts” in test [3] and “translocated into the chloroplasts” in test [3] (listed as TraP10-YFP).
